What all share (assay type): functional
The subject of experiment [1] is Staphylococcus aureus. In words: Antibacterial activity against Staphylococcus aureus DSM 1104 assessed as growth inhibition after 24 hr. Particulars: DSM 1104, 24 h.
Experiment [2] concerns Pseudomonas aeruginosa. In words: Antibacterial activity against Pseudomonas aeruginosa ATCC 10145 assessed as growth inhibition after 24 hr by two-fold serial dilution method. As to conditions: ATCC 10145, 24 h.
Experiment [3] has as its system Escherichia coli. In words: Antibacterial activity against Escherichia coli ATCC 11775 assessed as growth inhibition after 24 hr by two-fold serial dilution method. Particulars: ATCC 11775, 24 h.
For experiment [4], the system named is Bacillus subtilis. The experiment is described as follows: Antibacterial activity against Bacillus subtilis ATCC 6633 assessed as growth inhibition after 24 hr by two fold serial dilution method. Particulars: ATCC 6633, 24 h.
The test system of experiment [5] is Candida albicans. In words: Antifungal activity against Candida albicans DSM 70014 assessed as diamater of growth inhibition zone after 48 hr by agar cup diffusion method.
For experiment [6], the system named is Pseudomonas aeruginosa. In words: Antibacterial activity against Pseudomonas aeruginosa ATCC 10145 assessed as growth inhibition after 24 hr. As to conditions: ATCC 10145, 24 h.
The test system of experiment [7] is Escherichia coli. The experiment is described as follows: Antibacterial activity against Escherichia coli ATCC 11775 assessed as diamater of growth inhibition zone after 24 hr by agar cup diffusion method.
Experiment [8] concerns Bacillus subtilis. In words: Antibacterial activity against Bacillus subtilis ATCC 6633 assessed as diamater of growth inhibition zone after 24 hr by agar cup diffusion method.
The test system of experiment [9] is Pseudomonas aeruginosa. In words: Ratio of Ampicillin MIC to compound MIC for Pseudomonas aeruginosa ATCC 10145.
In experiment [10] the test system is Pseudomonas aeruginosa. In words: Antibacterial activity against Pseudomonas aeruginosa ATCC 10145 assessed as diamater of growth inhibition zone after 24 hr by agar cup diffusion method.
Experiment [11] has as its system Staphylococcus aureus. The experiment is described as follows: Antibacterial activity against Staphylococcus aureus DSM 1104 assessed as growth inhibition after 24 hr by two fold serial dilution method. As to conditions: DSM 1104, 24 h.
For experiment [12], the system named is Candida albicans. The experiment is described as follows: Antifungal activity against Candida albicans DSM 70014 assessed as growth inhibition after 48 hr by two-fold serial dilution method. As to conditions: DSM 70014, 48 h.
The subject of experiment [13] is Bacillus subtilis. The experiment is described as follows: Antibacterial activity against Bacillus subtilis ATCC 6633 assessed as growth inhibition after 24 hr. As to conditions: ATCC 6633, 24 h.
Experiment [14] relates to Candida albicans. In words: Antifungal activity against Candida albicans DSM 70014 assessed as growth inhibition after 48 hr. Particulars: DSM 70014, 48 h.
For experiment [15], the system named is Staphylococcus aureus. In words: Antibacterial activity against Staphylococcus aureus DSM 1104 assessed as diamater of growth inhibition zone after 24 hr by agar cup diffusion method.
For experiment [16], the system named is Escherichia coli. In words: Antibacterial activity against Escherichia coli ATCC 11775 assessed as growth inhibition after 24 hr. Particulars: ATCC 11775, 24 h.

The text below walks through data of ChEMBL document CHEMBL3044795, “Synthesis and biological evaluation of novel benzoquinones as potential antimicrobial agents” (2013).

Values after ≈ are worked out from the molar mass of the structure shown.

Usually MBC stands for the smallest concentration meeting the test's criterion for killing. What is called MIC is the lowest concentration found to suppress growth. By MFC is commonly meant the smallest concentration meeting the test's criterion for killing the fungus. `COc1ccc(OC)c(/C=N/N=c2\scc(-c3cc(O)ccc3O)n2-c2ccc(C)cc2)c1`: the MBC is 25 µg/mL (≈ 54.2 µM) in the experiment with Staphylococcus aureus [1], 50 µg/mL (≈ 108 µM) in the experiment on Pseudomonas aeruginosa [6], 25 µg/mL (≈ 54.2 µM) with Bacillus subtilis [13] and 50 µg/mL (≈ 108 µM) in the experiment on Escherichia coli [16]. In addition, the minimal inhibitory concentration (MIC) with Pseudomonas aeruginosa [2] was 25 µg/mL (≈ 54.2 µM); with Escherichia coli [3], 25 µg/mL (≈ 54.2 µM); in the experiment with Bacillus subtilis [4], 12.5 µg/mL (≈ 27.1 µM); in the experiment with Staphylococcus aureus [11], 12.5 µg/mL (≈ 27.1 µM); with Candida albicans [12], 50 µg/mL (≈ 108 µM). The “diameter of the inhibition zone (DIZ)” value is reported as 14 mm in the experiment on Candida albicans [5]; 17 mm with Escherichia coli [7]; 17 mm with Bacillus subtilis [8]; 14 mm with Pseudomonas aeruginosa [10]; 14 mm with Staphylococcus aureus [15]. The Ratio with Pseudomonas aeruginosa [9] is on record as 2. In the experiment on Candida albicans [14], the MFC came to 50 µg/mL (≈ 108 µM).
Turning to `COc1cc(/C=N/N=c2\scc(-c3cc(O)ccc3O)n2-c2ccc(C)cc2)ccc1O`, the MBC in the experiment with Staphylococcus aureus [1] turned out to be 50 µg/mL (≈ 112 µM); in the experiment with Pseudomonas aeruginosa [6], 100 µg/mL (≈ 223 µM); in the experiment with Bacillus subtilis [13] it was 50 µg/mL (≈ 112 µM); with Escherichia coli [16], 100 µg/mL (≈ 223 µM). The MIC is 50 µg/mL (≈ 112 µM) in the experiment with Pseudomonas aeruginosa [2]; 50 µg/mL (≈ 112 µM) in the experiment with Escherichia coli [3]; 50 µg/mL (≈ 112 µM) in the experiment with Bacillus subtilis [4]; 25 µg/mL (≈ 55.9 µM) in the experiment on Staphylococcus aureus [11]; 50 µg/mL (≈ 112 µM) in the experiment on Candida albicans [12]. For the same compound, the “diameter of the inhibition zone (DIZ)” value in the experiment on Candida albicans [5] was 12 mm; in the experiment with Escherichia coli [7] it was 14 mm; with Bacillus subtilis [8], 15 mm; in the experiment on Pseudomonas aeruginosa [10], 16 mm; in the experiment on Staphylococcus aureus [15] it was 15 mm. Also, in the experiment with Candida albicans [14], the MFC amounted to 50 µg/mL (≈ 112 µM).
On to `COc1ccc(/C=N/N=c2\scc(-c3cc(O)ccc3O)n2-c2ccc(C)cc2)cc1O`, for which the minimal bactericidal concentration (MBC) in the experiment on Staphylococcus aureus [1], in the experiment on Pseudomonas aeruginosa [6], in the experiment with Bacillus subtilis [13] and in the experiment on Escherichia coli [16] was 50 µg/mL (≈ 112 µM) throughout. The MIC with Pseudomonas aeruginosa [2] is 25 µg/mL (≈ 55.9 µM); with Escherichia coli [3], 25 µg/mL (≈ 55.9 µM); with Bacillus subtilis [4], 25 µg/mL (≈ 55.9 µM); in the experiment with Staphylococcus aureus [11], 25 µg/mL (≈ 55.9 µM); with Candida albicans [12], 12.5 µg/mL (≈ 27.9 µM). The “diameter of the inhibition zone (DIZ)” value in the experiment with Candida albicans [5] worked out at 14 mm; in the experiment with Escherichia coli [7], 14 mm; in the experiment on Bacillus subtilis [8], 14 mm; with Pseudomonas aeruginosa [10], 13 mm; in the experiment with Staphylococcus aureus [15], 16 mm. Moreover, in the experiment with Pseudomonas aeruginosa [9], the Ratio amounted to 2. In addition, the MFC in the experiment on Candida albicans [14] was 25 µg/mL (≈ 55.9 µM).
Turning to `COc1ccc(/C=N/N=c2\scc(-c3cc(O)ccc3O)n2-c2ccc(Cl)cc2)cc1`, the MBC came to 100 µg/mL (≈ 221 µM) in the experiment on Staphylococcus aureus [1], 50 µg/mL (≈ 111 µM) in the experiment on Pseudomonas aeruginosa [6], 50 µg/mL (≈ 111 µM) in the experiment with Bacillus subtilis [13] and 50 µg/mL (≈ 111 µM) with Escherichia coli [16]. Moreover, the MIC was 50 µg/mL (≈ 111 µM) with Pseudomonas aeruginosa [2]; 25 µg/mL (≈ 55.3 µM) with Escherichia coli [3]; 50 µg/mL (≈ 111 µM) in the experiment on Bacillus subtilis [4]; 100 µg/mL (≈ 221 µM) in the experiment on Staphylococcus aureus [11]; 50 µg/mL (≈ 111 µM) with Candida albicans [12]. Further, the “diameter of the inhibition zone (DIZ)” value in the experiment with Candida albicans [5] is listed as 15 mm; with Escherichia coli [7], 14 mm; in the experiment with Bacillus subtilis [8], 14 mm; in the experiment with Pseudomonas aeruginosa [10], 12 mm; in the experiment with Staphylococcus aureus [15], 15 mm. In the experiment on Candida albicans [14], the MFC came to 50 µg/mL (≈ 111 µM).
As for `COc1ccc(OC)c(/C=N/N=c2\scc(-c3cc(O)ccc3O)n2-c2ccc(Cl)cc2)c1`, the MBC with Staphylococcus aureus [1] was 100 µg/mL (≈ 207 µM); in the experiment on Pseudomonas aeruginosa [6], 50 µg/mL (≈ 104 µM); in the experiment on Bacillus subtilis [13], 50 µg/mL (≈ 104 µM); with Escherichia coli [16] it was 50 µg/mL (≈ 104 µM). Further, the minimal inhibitory concentration (MIC) in the experiment on Pseudomonas aeruginosa [2] is 50 µg/mL (≈ 104 µM); in the experiment on Escherichia coli [3] it was 25 µg/mL (≈ 51.9 µM); with Bacillus subtilis [4], 50 µg/mL (≈ 104 µM); in the experiment with Staphylococcus aureus [11], 50 µg/mL (≈ 104 µM); with Candida albicans [12], 50 µg/mL (≈ 104 µM). Also, the “diameter of the inhibition zone (DIZ)” value is 13 mm in the experiment on Candida albicans [5]; 18 mm in the experiment on Escherichia coli [7]; 15 mm in the experiment with Bacillus subtilis [8]; 16 mm with Pseudomonas aeruginosa [10]; 13 mm in the experiment on Staphylococcus aureus [15]. In addition, the minimum fungicidal concentration (MFC) with Candida albicans [14] stood at 100 µg/mL (≈ 207 µM).
`COc1cc(/C=N/N=c2\scc(-c3cc(O)ccc3O)n2-c2ccc(Cl)cc2)ccc1O`: the minimum bactericidal concentration (MBC) in the experiment on Staphylococcus aureus [1] worked out at 50 µg/mL (≈ 107 µM); with Pseudomonas aeruginosa [6], 100 µg/mL (≈ 214 µM); in the experiment with Bacillus subtilis [13], 50 µg/mL (≈ 107 µM); in the experiment on Escherichia coli [16], 100 µg/mL (≈ 214 µM). Also, the minimum inhibitory concentration (MIC) was found to be 100 µg/mL (≈ 214 µM) in the experiment with Pseudomonas aeruginosa [2]; 100 µg/mL (≈ 214 µM) in the experiment with Escherichia coli [3]; 50 µg/mL (≈ 107 µM) in the experiment with Bacillus subtilis [4]; 50 µg/mL (≈ 107 µM) with Staphylococcus aureus [11]; 100 µg/mL (≈ 214 µM) with Candida albicans [12]. The “diameter of the inhibition zone (DIZ)” value in the experiment with Candida albicans [5] amounted to 14 mm; with Escherichia coli [7], 15 mm; in the experiment on Bacillus subtilis [8], 16 mm; with Pseudomonas aeruginosa [10] it was 14 mm; in the experiment on Staphylococcus aureus [15] it was 16 mm. In addition, the MFC in the experiment on Candida albicans [14] is 100 µg/mL (≈ 214 µM).
